Values joined by “and” are separate entries in the source; they are usually repeats but may differ in a detail not shown here. Equal entries are not always repeated.
Tests used:
[1] = system: IL10; test: Plasma cytokine concentration, Pointilliste Human Th1/Th2 Cytokine Canvas; format: in vivo; conditions: OXY = oxycodone QID, BID/QID = combination drug of oxycodone and naltrexone BID/QID
Description: (§1) Plasma samples from selected subjects in the clinical study were used to assay for the presence and concentration of selected cytokines.
(§2) Plasma samples were analyzed using a commercial cytokine assay from Pointilliste (www.pointilliste.com) to quantify the concentrations of IL2, IL4, IL5, IL6, IL10, IL13, GM-CSF, interferon and TNFα. Plasma samples were separately analyzed for IL1αand IL1β, which were quantitated using a conventional cytokine assay by Pointilliste. The cytokine assay for the quantitation of IL2, IL4, IL5, IL6, IL10, IL13, GM-CSF, interferon and TNFα employed, Pointilliste's Human Th1/Th2 Cytokine Canvas product which contains binding sites for each of these nine cytokines.
(§3) Two measurements (duplicates) for each cytokine were possible for each plasma sample applied to a canvas, since the canvas has two binding sites for each cytokine.
(§4) Fifty-seven frozen human plasma samples containing EDTA as an anticoagulant were thawed on ice and transferred to a sterile 96-deep well polypropylene plate. The plate was centrifuged briefly at 4° C. to clarify the plasma. Aliquots of clarified plasma were removed for cytokine analysis, and the remaining samples in the 96-deep well polypropylene plate were stored at −80° C.
(§5) The aliquots of clarified plasma were transferred to sterile non-protein binding 96-well polypropylene plates to enable parallel processing of the samples. Two different 96 well plates were used, and each received a subsample of the aliquots at different dilutions. Two dilutions (1 in 1 and 1 in 10) of each sample were assayed on two separate human Th1/Th2 cytokine canvases. In order to quantify the cytokine concentrations, standard curves were generated for each dilution. A mixture of 9 cytokines was run on each of the canvases and used to calculate a standard curve, which was used to determine the amount of each cytokine in the samples. The standard curves were plotted with the signal intensity as a function of the cytokine concentration in ng/ml. A CCD camera was used with Pointilliste's Canvas Analysis Tools software to generate data corresponding to cytokine concentrations.

[2] = system: IL6; test: as above; format: in vivo; conditions: OXY = oxycodone QID, BID/QID = combination drug of oxycodone and naltrexone BID/QID
Description: as §1, §2, §3, §4, §5

[3] = system: IL4; test: as above; format: in vivo; conditions: OXY = oxycodone QID, BID/QID = combination drug of oxycodone and naltrexone BID/QID
Description: as §1, §2, §3, §4, §5

[4] = system: IL2; test: as above; format: in vivo; conditions: OXY = oxycodone QID, BID/QID = combination drug of oxycodone and naltrexone BID/QID
Description: as §1, §2, §3, §4, §5

[5] = system: IL13; test: as above; format: in vivo; conditions: OXY = oxycodone QID, BID/QID = combination drug of oxycodone and naltrexone BID/QID
Description: as §1, §2, §3, §4, §5

[6] = system: interferon gamma; test: as above; format: in vivo; conditions: OXY = oxycodone QID, BID/QID = combination drug of oxycodone and naltrexone BID/QID
Description: as §1, §2, §3, §4, §5

[7] = system: TNFα; test: as above; format: in vivo; conditions: OXY = oxycodone QID, BID/QID = combination drug of oxycodone and naltrexone BID/QID
Description: as §1, §2, §3, §4, §5

[8] = system: patients with moderate to severe chronic low back pain; test: Opioid Associated Adverse Event Score (OAAES), low back pain study; format: in vivo, human; conditions: through the treatment period; ITT population
Text: The OAAES is a derived measure using the maximum severity for each of six opioid-associated adverse events (constipation, nausea, vomiting, dizziness, somnolence, and pruritis). For each patient, a maximum severity score (mild=1, moderate=2, and severe=3) was summed for each of the six treatment emergent opioid-associated adverse events that were present. […]

[9] = system: patients with moderate to severe chronic low back pain; test: Quality of analgesia, low back pain study; format: in vivo, human; conditions: LOCF, ITT
Description: Quality of analgesia was assessed at clinic visits during the titration and fixed-dose periods. The patient was prompted with the question, “How would you rate the quality of your pain relief at this time?” and responses were selected from poor, fair, good, very good, and excellent.
Global assessment and quality of analgesia ratings were summarized descriptively by treatment group for both the titration and fixed-dose periods. Treatments were compared at each visit in the fixed-dose period, globally and in pairwise fashion, using the Cochran-Mantel-Haenszel row mean scores (CMH-RMS) test, using equally spaced scores.

[10] = individual measurements of plasma samples, listed as OXY
[11] = treatment group mean, random sample of subjects

Question: What does the source list for `COc1ccc2c3c1O[C@H]1C(=O)CC[C@@]4(O)[C@@H](C2)N(C)CC[C@]314` [OXY QID, oxycodone]?
Answer: IL10 cytokine concentration [1, 10]: 0.07237 ng/mL and 0.2164 ng/mL and 0.2235 ng/mL and 0.2438 ng/mL and 0.2959 ng/mL and 0.3757 ng/mL and 0.9598 ng/mL and 1.236 ng/mL and 1.26 ng/mL and 1.394 ng/mL; Mean of IL10 concentrations [1, 11]: 0.628 ng/mL; IL6 cytokine concentration [2, 10]: 0.04453 ng/mL and 0.0579 ng/mL and 0.06949 ng/mL and 0.0733 ng/mL and 0.07724 ng/mL and 0.0774 ng/mL and 0.1107 ng/mL and 0.1115 ng/mL and 0.1391 ng/mL and 0.1469 ng/mL and 0.3354 ng/mL and 0.3599 ng/mL and 0.5957 ng/mL and 0.604 ng/mL; Mean of IL6 concentrations [2, 11]: 0.2 ng/mL; IL4 cytokine concentration [3, 10]: 0.0907 ng/mL and 0.09132 ng/mL and 0.1379 ng/mL and 0.1411 ng/mL and 0.2369 ng/mL and 0.2651 ng/mL and 0.4655 ng/mL and 0.4725 ng/mL; Mean of IL4 concentrations [3, 11]: 0.238 ng/mL; IL2 cytokine concentration [4, 10]: 0.1202 ng/mL and 0.1501 ng/mL and 0.1613 ng/mL and 0.1672 ng/mL and 0.208 ng/mL and 0.2689 ng/mL and 0.3259 ng/mL and 0.4012 ng/mL and 0.4755 ng/mL and 0.5532 ng/mL and 0.7233 ng/mL and 1.583 ng/mL and 1.817 ng/mL and 0.092 ng/mL; Mean of IL2 concentrations [4, 11]: 0.503 ng/mL; IL13 cytokine concentration [5, 10]: 2.362 ng/mL and 3.291 ng/mL and 3.392 ng/mL and 0.06466 ng/mL and 0.073 ng/mL and 0.1092 ng/mL and 0.1415 ng/mL and 0.1418 ng/mL and 0.1451 ng/mL and 0.1509 ng/mL and 0.169 ng/mL and 0.2847 ng/mL and 0.3385 ng/mL and 0.37 ng/mL and 0.6256 ng/mL and 0.941 ng/mL and 1.09 ng/mL and 2.079 ng/mL; Mean of IL13 concentrations [5, 11]: 0.876 ng/mL; IFN cytokine concentration [6, 10]: 0.07226 ng/mL and 0.07442 ng/mL and 0.2197 ng/mL and 0.2407 ng/mL; Mean of IFN concentrations [6, 11]: 0.152 ng/mL; TNF cytokine concentration [7, 10]: 0.05312 ng/mL and 0.05316 ng/mL and 0.05332 ng/mL and 0.06095 ng/mL and 0.1469 ng/mL and 0.2 ng/mL and 0.5152 ng/mL and 0.5153 ng/mL; Mean of TNF concentrations [7, 11]: 0.2 ng/mL; Opioid Associated Adverse Event Score (OAAES), maximum [8]: 16.0; Opioid Associated Adverse Event Score (OAAES), mean (SD) [8]: 5.6 (3.95); Opioid Associated Adverse Event Score (OAAES), median [8]: 5.0; Opioid Associated Adverse Event Score (OAAES), minimum [8]: 0.0; Quality of analgesia EXCELLENT (4), number of patients ([9]; fixed dose period week 1): 25; Quality of analgesia EXCELLENT (4), percent of patients ([9]; fixed dose period week 1): 12.1%; Quality of analgesia FAIR (1), number of patients ([9]; fixed dose period week 1): 26; Quality of analgesia FAIR (1), percent of patients ([9]; fixed dose period week 1): 12.6%; Quality of analgesia GOOD (2), number of patients ([9]; fixed dose period week 1): 69; Quality of analgesia GOOD (2), percent of patients ([9]; fixed dose period week 1): 33.5%; Quality of analgesia POOR (0), number of patients ([9]; fixed dose period week 1): 33; Quality of analgesia POOR (0), percent of patients ([9]; fixed dose period week 1): 16.0%; Quality of analgesia VERY GOOD (3), number of patients ([9]; fixed dose period week 1): 52; Quality of analgesia VERY GOOD (3), percent of patients ([9]; fixed dose period week 1): 25.2%; Quality of analgesia EXCELLENT (4), number of patients ([9]; fixed dose period week 2): 24; Quality of analgesia EXCELLENT (4), percent of patients ([9]; fixed dose period week 2): 11.7%; Quality of analgesia FAIR (1), number of patients ([9]; fixed dose period week 2): 27; Quality of analgesia FAIR (1), percent of patients ([9]; fixed dose period week 2): 13.1%; Quality of analgesia GOOD (2), number of patients ([9]; fixed dose period week 2): 70; Quality of analgesia GOOD (2), percent of patients ([9]; fixed dose period week 2): 34.0%; Quality of analgesia POOR (0), number of patients ([9]; fixed dose period week 2): 32; Quality of analgesia POOR (0), percent of patients ([9]; fixed dose period week 2): 15.5%; Quality of analgesia VERY GOOD (3), number of patients ([9]; fixed dose period week 2): 52; Quality of analgesia VERY GOOD (3), percent of patients ([9]; fixed dose period week 2): 25.2%; Quality of analgesia EXCELLENT (4), number of patients ([9]; fixed dose period week 4): 20; Quality of analgesia EXCELLENT (4), percent of patients ([9]; fixed dose period week 4): 9.7%; Quality of analgesia FAIR (1), number of patients ([9]; fixed dose period week 4): 28; Quality of analgesia FAIR (1), percent of patients ([9]; fixed dose period week 4): 13.6%; Quality of analgesia GOOD (2), number of patients ([9]; fixed dose period week 4): 63; Quality of analgesia GOOD (2), percent of patients ([9]; fixed dose period week 4): 30.6%; Quality of analgesia POOR (0), number of patients ([9]; fixed dose period week 4): 35; Quality of analgesia POOR (0), percent of patients ([9]; fixed dose period week 4): 17.0%; Quality of analgesia VERY GOOD (3), number of patients ([9]; fixed dose period week 4): 59; Quality of analgesia VERY GOOD (3), percent of patients ([9]; fixed dose period week 4): 28.6%; Quality of analgesia EXCELLENT (4), number of patients ([9]; fixed dose period week 6): 24; Quality of analgesia EXCELLENT (4), percent of patients ([9]; fixed dose period week 6): 11.7%; Quality of analgesia FAIR (1), number of patients ([9]; fixed dose period week 6): 34; Quality of analgesia FAIR (1), percent of patients ([9]; fixed dose period week 6): 16.5%; Quality of analgesia GOOD (2), number of patients ([9]; fixed dose period week 6): 67; Quality of analgesia GOOD (2), percent of patients ([9]; fixed dose period week 6): 32.5%; Quality of analgesia POOR (0), number of patients ([9]; fixed dose period week 6): 36; Quality of analgesia POOR (0), percent of patients ([9]; fixed dose period week 6): 17.5%; Quality of analgesia VERY GOOD (3), number of patients ([9]; fixed dose period week 6): 44; Quality of analgesia VERY GOOD (3), percent of patients ([9]; fixed dose period week 6): 21.4%; Quality of analgesia EXCELLENT (4), number of patients ([9]; fixed dose period week 8): 24; Quality of analgesia EXCELLENT (4), percent of patients ([9]; fixed dose period week 8): 11.7%; Quality of analgesia FAIR (1), number of patients ([9]; fixed dose period week 8): 35; Quality of analgesia FAIR (1), percent of patients ([9]; fixed dose period week 8): 17.0%; Quality of analgesia GOOD (2), number of patients ([9]; fixed dose period week 8): 72; Quality of analgesia GOOD (2), percent of patients ([9]; fixed dose period week 8): 35.0%; Quality of analgesia POOR (0), number of patients ([9]; fixed dose period week 8): 33; Quality of analgesia POOR (0), percent of patients ([9]; fixed dose period week 8): 16.0%; Quality of analgesia VERY GOOD (3), number of patients ([9]; fixed dose period week 8): 41; Quality of analgesia VERY GOOD (3), percent of patients ([9]; fixed dose period week 8): 19.9%; Quality of analgesia EXCELLENT (4), number of patients ([9]; fixed dose period week 10): 24; Quality of analgesia EXCELLENT (4), percent of patients ([9]; fixed dose period week 10): 11.7%; Quality of analgesia FAIR (1), number of patients ([9]; fixed dose period week 10): 35; Quality of analgesia FAIR (1), percent of patients ([9]; fixed dose period week 10): 17.0%; Quality of analgesia GOOD (2), number of patients ([9]; fixed dose period week 10): 66; Quality of analgesia GOOD (2), percent of patients ([9]; fixed dose period week 10): 32.0%; Quality of analgesia POOR (0), number of patients ([9]; fixed dose period week 10): 35; Quality of analgesia POOR (0), percent of patients ([9]; fixed dose period week 10): 17.0%; Quality of analgesia VERY GOOD (3), number of patients ([9]; fixed dose period week 10): 45; Quality of analgesia VERY GOOD (3), percent of patients ([9]; fixed dose period week 10): 21.8%; Quality of analgesia EXCELLENT (4), number of patients ([9]; fixed dose period week 12): 21; Quality of analgesia EXCELLENT (4), percent of patients ([9]; fixed dose period week 12): 10.2%; Quality of analgesia FAIR (1), number of patients ([9]; fixed dose period week 12): 40; Quality of analgesia FAIR (1), percent of patients ([9]; fixed dose period week 12): 19.4%; Quality of analgesia GOOD (2), number of patients ([9]; fixed dose period week 12): 64; Quality of analgesia GOOD (2), percent of patients ([9]; fixed dose period week 12): 31.1%; Quality of analgesia POOR (0), number of patients ([9]; fixed dose period week 12): 37; Quality of analgesia POOR (0), percent of patients ([9]; fixed dose period week 12): 18.0%; Quality of analgesia VERY GOOD (3), number of patients ([9]; fixed dose period week 12): 43; Quality of analgesia VERY GOOD (3), percent of patients ([9]; fixed dose period week 12): 20.9%
